Results as given in PubChem BioAssay AID256 (DTP/NCI, 2004).
“And” between values parts separate entries of the source, which are not always exact repeats. Identical values can stand only once. Toxic doses and inconclusive results are not listed.

Test system: CD2F1 mice, L1210 leukemia ip, survival T/C
Assay: NCI In Vivo Anticancer Drug Screen. Data for tumor model L1210 Leukemia (intraperitoneal) in CD2F1 (CDF1) mice
Conditions: higher = longer survival
In short: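 Mice carrying a transplanted tumor received test compound or vehicle alone. The value is the measurement in the treated group divided by that in the vehicle-treated control group.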

[1] = endpoint: mean survival time, dose: 100.0 mg/kg/injection, schedule: Q01DX001 (ip), vehicle: saline with Tween-80
[2] = endpoint: mean survival time, dose: 200.0 mg/kg/injection, schedule: Q01DX001 (ip), vehicle: saline with Tween-80
[3] = endpoint: mean survival time, dose: 100.0 mg/kg/injection, schedule: Q01DX009 (ip), vehicle: saline
[4] = endpoint: mean survival time, dose: 100.0 mg/kg/injection, schedule: Q04DX003 (ip), vehicle: saline with Tween-80
[5] = endpoint: mean survival time, dose: 200.0 mg/kg/injection, schedule: Q01DX009 (ip), vehicle: saline
[6] = endpoint: mean survival time, dose: 200.0 mg/kg/injection, schedule: Q04DX003 (ip), vehicle: saline with Tween-80
[7] = endpoint: mean survival time, dose: 400.0 mg/kg/injection, schedule: Q01DX009 (ip), vehicle: saline
[8] = endpoint: mean survival time, dose: 400.0 mg/kg/injection, schedule: Q04DX003 (ip), vehicle: saline with Tween-80
[9] = endpoint: mean survival time, dose: 200.0 mg/kg/injection, schedule: Q01DX009 (ip), vehicle: saline with Tween-80
[10] = endpoint: mean survival time, dose: 100.0 mg/kg/injection, schedule: Q01DX001 (ip), vehicle: saline

## Nc1cc(N)nc(N)n1
[1]
  T/C: 103 % of control
[2]
  T/C: 105 % of control

## Cn1c(CC#N)c(C[N+](C)(C)C)c2ccccc21
endpoint: mean survival time, dose: 2.5 mg/kg/injection, schedule: Q01DX009 (ip), vehicle: saline with Tween-80
  T/C: 97 % of control
endpoint: mean survival time, dose: 5.0 mg/kg/injection, schedule: Q01DX001 (ip), vehicle: saline with Tween-80
  T/C: 102 % of control
endpoint: mean survival time, dose: 5.0 mg/kg/injection, schedule: Q01DX009 (ip), vehicle: saline with Tween-80
  T/C: 97 % of control
endpoint: mean survival time, dose: 10.0 mg/kg/injection, schedule: Q01DX001 (ip), vehicle: saline with Tween-80
  T/C: 96 % of control

## COc1ccc(NC(=O)Nc2cccc([N+](=O)[O-])c2OC)cc1
endpoint: mean survival time, dose: 200.0 mg/kg/injection, schedule: Q04DX002 (ip), vehicle: saline with Tween-80
  T/C: 86 % of control
endpoint: mean survival time, dose: 400.0 mg/kg/injection, schedule: Q04DX002 (ip), vehicle: saline with Tween-80
  T/C: 96 % of control

## O=C(Nc1cccc([N+](=O)[O-])c1)c1cc2ccccc2cc1O
[3]
  T/C: 101 % of control
[4]
  T/C: 95 % of control
[5]
  T/C: 97 % of control
[6]
  T/C: 95 % of control
[7]
  T/C: 98 % of control
[8]
  T/C: 87 % of control

## COc1cc(OC)c(NC(=O)Nc2ccc(N(C)C(C)=O)cc2)cc1Cl
endpoint: mean survival time, dose: 50.0 mg/kg/injection, schedule: Q01DX009 (ip), vehicle: saline with Tween-80
  T/C: 88 % of control
endpoint: mean survival time, dose: 100.0 mg/kg/injection, schedule: Q01DX009 (ip), vehicle: saline with Tween-80
  T/C: 88 % of control
[9]
  T/C: 88 % of control

## CCN(CC)/C(N)=N\c1nc(C)c2cc(Cl)ccc2n1
[10]
  T/C: 103 % of control

## CCOC(=O)Nc1cc(NC(C)/C(=N/O)c2ccccc2)c([N+](=O)[O-])c(N)n1 (stereo not given)
endpoint: median survival time, dose: 25.0 mg/kg/injection, schedule: Q01DX005 (ip), vehicle: Klucel (hydroxypropylcellulose) (HPC)
  T/C: 119 % of control and 98 % of control
endpoint: median survival time, dose: 30.0 mg/kg/injection, schedule: Q01DX005 (ip), vehicle: Klucel (hydroxypropylcellulose) (HPC)
  T/C: 98 % of control
endpoint: median survival time, dose: 40.0 mg/kg/injection, schedule: Q01DX005 (ip), vehicle: Klucel (hydroxypropylcellulose) (HPC)
  T/C: 119 % of control
endpoint: median survival time, dose: 60.0 mg/kg/injection, schedule: Q01DX005 (ip), vehicle: Klucel (hydroxypropylcellulose) (HPC)
  T/C: 110 % of control
endpoint: median survival time, dose: 120.0 mg/kg/injection, schedule: Q01DX005 (ip), vehicle: Klucel (hydroxypropylcellulose) (HPC)
  T/C: 122 % of control
endpoint: median survival time, dose: 200.0 mg/kg/injection, schedule: Q01DX005 (ip), vehicle: Klucel (hydroxypropylcellulose) (HPC)
  T/C: 188 % of control

## CC1CC(C)(C)C(C[NH-])C1[NH-].[Cl][Pt+2][Cl] (stereo not given)
endpoint: mean survival time, dose: 3.12 mg/kg/injection, schedule: Q04DX003 (ip), vehicle: saline
  T/C: 115 % of control
endpoint: mean survival time, dose: 50.0 mg/kg/injection, schedule: Q04DX003 (ip), vehicle: saline
  T/C: 261 % of control
endpoint: mean survival time, dose: 100.0 mg/kg/injection, schedule: Q04DX003 (ip), vehicle: saline
  T/C: 158 % of control and 211 % of control
endpoint: mean survival time, dose: 200.0 mg/kg/injection, schedule: Q04DX003 (ip), vehicle: saline
  T/C: 94 % of control

## COC(=O)C(N)CSSCC(N)C(=O)OC (stereo not given)
[10]
  T/C: 108 % of control
[3]
  T/C: 102 % of control
endpoint: mean survival time, dose: 200.0 mg/kg/injection, schedule: Q01DX001 (ip), vehicle: saline
  T/C: 97 % of control
[5]
  T/C: 94 % of control
endpoint: mean survival time, dose: 400.0 mg/kg/injection, schedule: Q01DX001 (ip), vehicle: saline
  T/C: 100 % of control
[7]
  T/C: 94 % of control

## CN1COc2cc3c(cc2C1)OCN(C)C3
[1]
  T/C: 100 % of control
[2]
  T/C: 100 % of control

## NOCc1ccccc1CON
endpoint: mean survival time, dose: 75.0 mg/kg/injection, schedule: Q01DX001 (ip), vehicle: saline
  T/C: 96 % of control
endpoint: mean survival time, dose: 150.0 mg/kg/injection, schedule: Q01DX001 (ip), vehicle: saline
  T/C: 100 % of control
endpoint: mean survival time, dose: 300.0 mg/kg/injection, schedule: Q01DX001 (ip), vehicle: saline
  T/C: 100 % of control

## O=C(CNCc1ccccc1)c1ccccc1
[4]
  T/C: 94 % of control
[6]
  T/C: 96 % of control
[8]
  T/C: 93 % of control

## O=C(O)C(O)(c1ccccc1)C1CCCC1 (stereo not given)
[9]
  T/C: 109 % of control
endpoint: mean survival time, dose: 400.0 mg/kg/injection, schedule: Q01DX009 (ip), vehicle: saline with Tween-80
  T/C: 112 % of control

## CC1CC(C)(C)N=C(C(Cc2ccccc2)Cc2ccccc2)O1 (stereo not given)
[1]
  T/C: 97 % of control
[2]
  T/C: 95 % of control

## CC(C)(C)C1CCCCC1
endpoint: mean survival time, dose: 12.5 mg/kg/injection, schedule: Q01DX009 (ip), vehicle: Klucel (hydroxypropylcellulose) (HPC)
  T/C: 90 % of control and 101 % of control
endpoint: mean survival time, dose: 25.0 mg/kg/injection, schedule: Q01DX009 (ip), vehicle: Klucel (hydroxypropylcellulose) (HPC)
  T/C: 90 % of control and 98 % of control
endpoint: mean survival time, dose: 50.0 mg/kg/injection, schedule: Q01DX009 (ip), vehicle: Klucel (hydroxypropylcellulose) (HPC)
  T/C: 93 % of control and 101 % of control
endpoint: mean survival time, dose: 100.0 mg/kg/injection, schedule: Q01DX009 (ip), vehicle: Klucel (hydroxypropylcellulose) (HPC)
  T/C: 88 % of control and 98 % of control
endpoint: mean survival time, dose: 200.0 mg/kg/injection, schedule: Q01DX009 (ip), vehicle: Klucel (hydroxypropylcellulose) (HPC)
  T/C: 91 % of control and 98 % of control
endpoint: mean survival time, dose: 400.0 mg/kg/injection, schedule: Q01DX009 (ip), vehicle: Klucel (hydroxypropylcellulose) (HPC)
  T/C: 93 % of control

## CSc1ncnc2c1ccn2C1OC(CO)C(O)C1O (stereo not given)
endpoint: median survival time, dose: 12.5 mg/kg/injection, schedule: Q01DX005 (ip), vehicle: saline
  T/C: 106 % of control
endpoint: median survival time, dose: 25.0 mg/kg/injection, schedule: Q01DX005 (ip), vehicle: saline
  T/C: 105 % of control
endpoint: median survival time, dose: 50.0 mg/kg/injection, schedule: Q01DX005 (ip), vehicle: saline
  T/C: 102 % of control
endpoint: median survival time, dose: 100.0 mg/kg/injection, schedule: Q01DX005 (ip), vehicle: saline
  T/C: 103 % of control
endpoint: median survival time, dose: 200.0 mg/kg/injection, schedule: Q01DX005 (ip), vehicle: saline
  T/C: 94 % of control

## O=C(C1CCC2(CCCCC2)CC1)n1ccnc1
endpoint: mean survival time, dose: 12.5 mg/kg/injection, schedule: Q01DX009 (ip), vehicle: other
  T/C: 95 % of control
endpoint: mean survival time, dose: 25.0 mg/kg/injection, schedule: Q01DX009 (ip), vehicle: other
  T/C: 89 % of control
endpoint: mean survival time, dose: 50.0 mg/kg/injection, schedule: Q01DX009 (ip), vehicle: other
  T/C: 106 % of control
endpoint: mean survival time, dose: 100.0 mg/kg/injection, schedule: Q01DX009 (ip), vehicle: other
  T/C: 93 % of control
endpoint: mean survival time, dose: 200.0 mg/kg/injection, schedule: Q01DX009 (ip), vehicle: other
  T/C: 97 % of control

## NC(=O)NNc1ccc([N+](=O)[O-])cc1[N+](=O)[O-]
endpoint: mean survival time, dose: 25.0 mg/kg/injection, schedule: Q04DX003 (ip), vehicle: saline with Tween-80
  T/C: 93 % of control
endpoint: mean survival time, dose: 50.0 mg/kg/injection, schedule: Q04DX003 (ip), vehicle: saline with Tween-80
  T/C: 89 % of control
[4]
  T/C: 97 % of control
